Source: US9815851B2, “Pyrrolo carboxamides as modulators of orphan nuclear receptor RAR-related orphan receptor-gamma (RORγ, NR1F3) activity and for the treatment of chronic inflammatory and autoimmune diseases” (PHENEX PHARMACEUTICALS AG, priority 2011, dated 2017)
Read-outs that look alike come from different tables or passages of the source.

Tests used:
[1] = target: T1, RORγ (UniProt P51449); test: RORγ Gal4 Reporter Gene Assay in 293T cells (firefly and renilla luciferase); assay type: cell-based, human
T1 sequence (P51449 1-518): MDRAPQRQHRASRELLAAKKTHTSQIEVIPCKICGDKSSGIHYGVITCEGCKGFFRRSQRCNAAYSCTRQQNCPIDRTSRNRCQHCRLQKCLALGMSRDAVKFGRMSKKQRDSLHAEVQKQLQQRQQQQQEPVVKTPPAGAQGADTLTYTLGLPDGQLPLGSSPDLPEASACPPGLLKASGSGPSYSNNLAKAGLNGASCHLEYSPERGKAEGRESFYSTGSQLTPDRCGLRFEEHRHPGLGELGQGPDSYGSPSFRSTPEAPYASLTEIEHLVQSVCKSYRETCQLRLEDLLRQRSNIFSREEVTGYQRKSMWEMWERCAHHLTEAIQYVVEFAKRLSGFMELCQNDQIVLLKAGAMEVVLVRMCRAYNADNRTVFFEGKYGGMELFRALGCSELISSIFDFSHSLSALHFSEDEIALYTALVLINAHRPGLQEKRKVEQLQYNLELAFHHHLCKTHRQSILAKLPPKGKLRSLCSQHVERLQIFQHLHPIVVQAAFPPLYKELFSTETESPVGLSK

[2] = target: T2, RORγ ligand binding domain (LBD) (Homo sapiens, UniProt P51449); test: TR-FRET Activity Assay (ligand sensing, RORγ-LBD / coactivator peptide interaction, LANCE); assay type: biochemical
T2 construct: made in house; host or cells: E. coli BL-21 (BL3), vector pDEST15
T2 sequence (P51449 269-508 limits assumed): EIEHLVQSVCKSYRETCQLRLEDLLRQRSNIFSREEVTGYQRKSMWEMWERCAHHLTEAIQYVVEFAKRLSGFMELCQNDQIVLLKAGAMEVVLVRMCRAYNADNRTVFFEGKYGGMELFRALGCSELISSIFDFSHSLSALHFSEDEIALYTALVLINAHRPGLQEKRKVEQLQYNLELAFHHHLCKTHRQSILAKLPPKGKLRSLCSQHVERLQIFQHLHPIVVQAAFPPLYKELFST

[3] = second value of the cell, Gal4 reporter gene assay in 293T cells, firefly luciferase
[4] = third value of the cell, Gal4 reporter gene assay in 293T cells, renilla normalised luciferase
[5] = first value of the cell FRET/FF/REN, TR-FRET activity assay, read-out: pIC50 (FRET) (converted)

Row | Compound | pIC50 (FF) [1, 3] | pIC50 (REN) [1, 4] | IC50 [2, 5] | pIC50 (FF) [1] | pIC50 (REN) [1] | IC50 [2]
1 | Cc1c(S(=O)(=O)NC(C)(C)C)ccc(-c2cc(C(=O)NCC(C)(C)C(N)=O)c(C)n2CC2CCCCC2)c1Cl [17/371] | 8.0 | 8.0 | 631 nM |  |  | 
2 | Cc1c(C(=O)N[C@H]2C[C@H](C(=O)O)C2)cc(-c2cc(C(=O)NC(C)(C)C)nc(C3(C)CC3)n2)n1CC1CCCCC1 [17/372] | 6.3 | 6.2 | 3160 nM |  |  | 
3 | Cc1c(C(=O)NCC(C)(C)O)cc(-c2cc(C(=O)NC(C)(C)C)nc(C3(C)CC3)n2)n1CC1CCCCC1 [17/373] | < 4.7 | < 4.7 | 5010 nM |  |  | 
4 | Cc1c(C(=O)NCC(C)(C)O)cc(-c2ccc(S(=O)(=O)NC(C)(C)C)c3ccccc23)n1CC1CCC(F)CC1 (stereo not drawn) [17/374] | 7.3 | 7.3 | 1580 nM |  |  | 
5 | CC(=NO)c1cc(-c2cc(C(=O)NC3CCOCC3)c(C)n2CC2CCCCC2)cc(C(C)(C)C)c1 [18/1] | 7.5 | 7.7 | 794 nM |  |  | 
6 | Cc1c(C(=O)NC2CCOCC2)cc(-c2ccc(S(=O)(=O)NC(C)(C)CCF)c(C(F)(F)F)c2)n1CC1CCCCC1 [18/2] | 8.0 | 8.2 | 251 nM |  |  | 
7 | Cc1c(C(=O)NC2CCOCC2)cc(-c2cc3c(c(C(C)(C)C)c2)OCCC3=NO)n1CC1CCCCC1 [18/3] | 6.1 | 6.5 | 1580 nM |  |  | 
8 | Cc1c(C(=O)NC2CCOCC2)cc(-c2cc3c(c(C(C)(C)C)c2)OCCC3F)n1CC1CCCCC1 (stereo not drawn) [18/4] | 6.3 | 6.5 | 794 nM |  |  | 
9 | Cc1c(C(=O)NC2CCOCC2)cc(-c2ccc(S(=O)(=O)NC(C)(C)CF)c(C(F)(F)F)c2)n1CC1CCCCC1 [18/5] |  |  |  | 6.2/7.5/7.5 | 6.2/7.5/7.5 | 631 nM
10 | Cc1c(C(=O)NC2CCOCC2)cc(-c2cc(Cl)c(S(N)(=O)=O)c(C(F)(F)F)c2)n1CC1CCCCC1 [19/1] | 6.8 | 6.8 | 501 nM |  |  | 
11 | CC(C)(C)NS(=O)(=O)c1ccc(-c2cc(C(=O)NC3CCOCC3)c(F)n2CC2CCCCC2)cc1C(F)(F)F [20/1] | 7.1 | 7.3 | 251 nM |  |  | 
12 | COC(=O)[C@H]1C[C@H](NC(=O)c2cc(-c3cc(C(C)(C)C)cc(C4(C)CC4)c3)n(CC3CCCCC3)c2F)C1 [20/2] | 7.0 | 7.2 | 316 nM |  |  | 
13 | CC(C)(C)c1cc(-c2cc(C(=O)N[C@H]3C[C@H](C(=O)O)C3)c(F)n2CC2CCCCC2)cc(C2(C)CC2)c1 [20/3] | 7.3 | 7.4 | 631 nM |  |  | 
14 | COC(=O)C(C)(C)CCNC(=O)c1cc(-c2cc(C(C)(C)C)cc(C3(C)CC3)c2)n(CC2CCCCC2)c1F [20/4] | 6.9 | 6.9 | 200 nM |  |  | 
15 | CC(C)(CCNC(=O)c1cc(-c2cc(C(C)(C)C)cc(C3(C)CC3)c2)n(CC2CCCCC2)c1F)C(=O)O [20/5] | 7.0 | 7.0 | 794 nM |  |  | 
16 | CC(C)(C)NS(=O)(=O)c1ccc(-c2cc(C(=O)NCCC(C)(C)C(=O)O)c(F)n2CC2CCCCC2)cc1C(F)(F)F [20/6] | 6.9 | 6.9 | 501 nM |  |  | 
17 | CC(C)(C)NS(=O)(=O)c1ccc(-c2cc(C(=O)N[C@H]3C[C@H](C(=O)O)C3)c(F)n2CC2CCCCC2)cc1C(F)(F)F [20/7] | 6.2 | 6.2 | 398 nM |  |  | 
18 | CC(C)(C)NS(=O)(=O)c1ccc(-c2cc(C(=O)N[C@H]3C[C@H](C(=O)O)C3)c(F)n2CC2CCCCC2)c2ccccc12 [20/8] | 7.0 | 7.0 | 1000 nM |  |  | 
19 | CC(C)(C)NS(=O)(=O)c1ccc(-c2cc(C(=O)NCCC(C)(C)C(=O)O)c(F)n2CC2CCCCC2)c2ccccc12 [20/9] | 7.8 | 7.6 | 1260 nM |  |  | 

Row | Compound | pIC50 (FF) [1, 3] | pIC50 (REN) [1, 4] | IC50 [2, 5] | pIC50 (FF) [1] | pIC50 (REN) [1] | IC50 [2]
20 | CC(C)(C)NS(=O)(=O)c1ccc(-c2cc(C(=O)NC3CCOCC3)c(Cl)n2CC2CCCCC2)c2ccccc12 [22/1] |  |  |  | 6.8/8.4/8.4 | 6.8/8.4/8.4 | 158 nM
21 | CC(C)(C)NS(=O)(=O)c1ccc(-c2cc(C(=O)N[C@H]3C[C@H](C(=O)O)C3)c(Cl)n2CC2CCCCC2)c2ccccc12 [22/2] | 8.1 | 8.0 | 398 nM |  |  | 
22 | Cc1c(C(=O)NC2CCOCC2)cc(C2=NN(S(=O)(=O)c3ccccc3)C3(CCCCC3)C2)n1CC1CCCCC1 [24/1] | 6.3 | 6.4 | 12600 nM |  |  | 
23 | Cc1c(C(=O)NC2COC2)cc(C2=NN(C(=O)C3CCCCC3)C3(CCCCC3)C2)n1CC1CCCCC1 [24/2] | < 4.7 | < 4.7 | 6310 nM |  |  | 
24 | Cc1n[nH]cc1-c1ccc(-c2cc(C(=O)NC3CCOCC3)c(C)n2CC2CCCCC2)cc1C(C)(C)C [26/1] |  |  |  | 6.6/7.4/7.5 | 6.6/7.4/7.5 | 251 nM
25 | Cc1c(C(=O)NC2CCOCC2)cc(-c2ccc(-c3cnn(C(C)(C)C)c3)c(C(C)(C)C)c2)n1CC1CCCCC1 [26/2] | 7.2 | 7.2 | 200 nM |  |  | 
26 | CCn1cc(-c2ccc(-c3cc(C(=O)NC4CCOCC4)c(C)n3CC3CCCCC3)cc2C(C)(C)C)cn1 [26/3] | 6.6 | 6.8 | 794 nM |  |  | 
27 | Cc1c(C(=O)NC2CCOCC2)cc(-c2ccc(-c3cnc(NC(C)C)nc3)c(C(C)(C)C)c2)n1CC1CCCCC1 [26/4] | 6.6 | 6.8 | 3980 nM |  |  | 
28 | Cc1c(C(=O)N[C@H]2C[C@H](C(=O)O)C2)cc(-c2ccc(-c3ccnn3C(C)C)c(C(C)(C)C)c2)n1CC1CCCCC1 [26/5] | 7.9 | 8.0 | 316 nM |  |  | 
29 | Cc1c(C(=O)NCCC(C)(C)C(=O)O)cc(-c2ccc(-c3ccnn3C(C)C)c(C(C)(C)C)c2)n1CC1CCCCC1 [26/6] | 7.7 | 7.9 | 398 nM |  |  | 
30 | Cc1c(C(=O)N[C@H]2C[C@H](C(=O)O)C2)c(Cl)c(-c2cc(C(C)(C)O)cc(C3(C)CC3)c2)n1CC1CCCCC1 [29/1] | 6.8 | 6.8 | 3160 nM |  |  | 
31 | COC(C)(C)c1cc(-c2c(Cl)c(C(=O)N[C@H]3C[C@H](C(=O)O)C3)c(C)n2CC2CCCCC2)cc(C2(C)CC2)c1 [29/2] | 7.3 | 7.1 | 2510 nM |  |  | 
32 | Cc1c(C(=O)NC2COC2)cc(-c2cc(C(C)(C)C)cc(C(C)(C)C)c2)n1C(C)C1CCCCC1 (stereo not drawn) [Example 1, 1-(1-Cyclohexylethyl)-5-(3,5-di-tert-butylphenyl)-2-methyl-N-(oxetan-3-yl)-1H-pyrrole-3-carboxamide] | 6.8 | 6.9 | 316 nM |  |  | 
33 | Cc1c(C(=O)NC2C[S+]([O-])C2)cc(-c2cc(C(C)(C)C)cc(C(C)(C)C)c2)n1CC1CCCCC1 (stereo not drawn) [Example 2, 1-(Cyclohexylmethyl)-5-(3,5-di-tert-butylphenyl)-2-methyl-N-(1-oxidothietan-3-yl)-1H-pyrrole-3-carboxamide] | 7.0 | 7.0 | 251 nM |  |  | 
34 | Cc1c(C(=O)NC2CS(=O)(=O)C2)cc(-c2cc(C(C)(C)C)cc(C(C)(C)C)c2)n1CC1CCCCC1 [Example 3, 1-(Cyclohexylmethyl)-5-(3,5-di-tert-butylphenyl)-N-(1,1-dioxidothietan-3-yl)-2-methyl-1H-pyrrole-3-carboxamide] |  |  |  | 6.6/7.4/7.4 | 6.6/7.4/7.4 | 251 nM
35 | CC(=O)N1CC(NC(=O)c2cc(-c3cc(C(C)(C)C)cc(C(C)(C)C)c3)n(CC3CCCCC3)c2C)C1 [Example 5, N-(1-Acetylazetidin-3-yl)-1-(cyclohexylmethyl)-5-(3,5-di-tert-butylphenyl)-2-methyl-1H-pyrrole-3-carboxamide] | 7.0 | 7.2 | 501 nM |  |  | 
36 | Cc1c(C(=O)NC2COC2)cc(-c2cc(C(=O)NC(C)(C)C)nc(C(C)(C)C)c2)n1CC1CCCCC1 [Example 6, N,6-Di-tert-butyl-4-(1-(cyclohexylmethyl)-5-methyl-4-(oxetan-3-ylcarbamoyl)-1H-pyrrol-2-yl)picolinamide] |  |  |  | 6.2/6.3/6.4 | 6.2/6.3/6.4 | 631 nM
37 | Cc1c(C(=O)NC2COC2)cc(-c2cc(C(C)(C)C)cc(C(C)(C)C)c2)n1S(=O)(=O)N1CCCCC1 [Example 7, 5-(3,5-Di-tert-butylphenyl)-2-methyl-N-(oxetan-3-yl)-1-(piperidin-1-ylsulfonyl)-1H-pyrrole-3-carboxamide] | 6.8 | 6.9 | 316 nM |  |  | 
